Read-outs that look alike come from different tables or passages of the source.
Experiments:
PH5CH8 liver cells = test: High-throughput hepatic de novo lipogenesis (DNL) assay, high content imaging of steatotic phenotype; format: cell-based, human; conditions: for IC50: Homo sapiens
[1] = test system: HEK293 cells stably transduced with the human OCT3 transporter; test: Cellular oxygen consumption rate (OCR), MitoXpress Xtra; format: cell-based; conditions: HEK293 cells expressing human OCT3; compared to DMSO control; 2 hours
Summary of the method: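 HEK293 cells stably expressing human OCT3, treated with four compound concentrations; oxygen consumption followed by MitoXpress Xtra TR-F lifetime (340/650 nm) every 2 min for 2 h. Lifetime slope from the linear portion taken as OCR; FCCP (1 μM) as stimulated control, differences versus DMSO by t-test.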

[2] = Metabolic stability in human liver microsomes; format: in vitro ADME
Protocol: (§1) Three experiments were performed with 1) 0.5mg/ml microsomes and 1mM NADPH, 2) 0.5mg/ml microsomes without NADPH and 3) 0.5mg/ml heat inactivated microsomes without NADPH in 100mM phosphate buffer, containing 5mM magnesium chloride. […] At the indicated time points, 50μl samples were removed and stopped by addition of 4 volumes of cold acetonitrile with internal standards, 100nM alprazolam, 200nM labetalol and 2μM ketoprofen. The samples were centrifuged at 3,220 g for 40 minutes and aliquots of 100μl were subsequently diluted with 100μl of ultra-pure water and analyzed by LC/MS/MS using a (Shimadzu corporation) LC system coupled to a Shimadzu Triple Quad 5500 mass spectrometer with an ESI interface. The LC system used a Waters XSelect HSS T3 C18, 2.5μm, 2.1 x 50 mm column eluted with one of two methods using mobile phases A (water, 0.1% formic acid) and B (acetonitrile, 0.1% formic acid). […] The Shimadzu Triple Quad 5500 MS was operated with the following parameters: Ion source: Turbo spray; Ionization mode: ESI; Scan type: MRM; Collision gas: 10 L/min; Curtain gas: 30 L/min; Nebulize gas: 50 L/min; Auxiliary gas: 50 L/min; Temperature: 500°C; Ionspray voltage: +5500 V (positive MRM). All experiments were performed in duplicate. Data were analyzed using Microsoft excel, and peak areas were determined from extracted ion chromatograms.

[3] = Metabolic stability in mouse liver microsomes; format: in vitro ADME
Protocol: as §1

[4] = test system: Salmonella typhimurium TA100; conditions: for Mean Revertant Colony Counts TA-100 SP9+: with S9; for Mean Revertant Colony Counts TA-100 S9-: without S9
[5] = test system: Salmonella typhimurium TA98; test: Ames assay, strain TA98; conditions: for Mean Revertant Colony Counts TA98 SP9+: with S9; for Mean Revertant Colony Counts TA98 S9-: without S9

CC(C)(C)c1ccc(O)c(C(=O)Nc2ccc(C(=O)O)cc2C(F)(F)F)c1 [Compound 500873, 4-[(5-tert-butyl-2-hydroxy)amido]-3-(trifluoromethyl)benzoic acid]
IC50 (PH5CH8 liver cells; PH5CH8 liver cells, 10-point dose response between 1μM and 1.9nM, read-out: IC50 (uM), inhibition of steatotic phenotype in DNL assay): 0.005 µM
IC50 (PH5CH8 liver cells; S1 Table, SAR for N-Substituted Phenylbenzamides, read-out: IC50): 0.0046 µM
Active/Inactive (PH5CH8 liver cells; S1 Table, SAR for N-Substituted Phenylbenzamides): Active
change in respiration / oxygen consumption rate (OCR) [1]: no change in respiration
Remaining Percentage of 60 min (%), Human, Tested Sample ([2]; 0.5mg/ml microsomes and 1mM NADPH): 64.2%
Remaining Percentage of 60 min (%), Human, Negative Control ([2]; 0.5mg/ml microsomes without NADPH): 97.7%
Remaining Percentage of 60 min (%), Human, Heat-inactivated Control ([2]; heat inactivated microsomes without NADPH): 91.1%
Remaining Percentage of 60 min (%), Mouse, Tested Sample ([3]; 0.5mg/ml microsomes and 1mM NADPH, 60 min): 107.5%
Remaining Percentage of 60 min (%), Mouse, Negative Control ([3]; 0.5mg/ml microsomes without NADPH, 60 min): 106.4%
stability in MLM ([3]; 60 minutes): stable
Remaining Percentage of 60 min (%), Mouse, Heat-inactivated Control ([3]; heat inactivated microsomes without NADPH, 60 min): 105.5%
Mean Revertant Colony Counts TA-100 SP9+ ([4]; 1.5 ug/Well): 22.3
Mean Revertant Colony Counts TA-100 S9- ([4]; 1.5 ug/Well): 33.0
Mean Revertant Colony Counts TA-100 SP9+ ([4]; 4 ug/Well): 18.3
Mean Revertant Colony Counts TA-100 S9- ([4]; 4 ug/Well): 31.7
Mean Revertant Colony Counts TA-100 SP9+ ([4]; 10 ug/Well): 20.7
Mean Revertant Colony Counts TA-100 S9- ([4]; 10 ug/Well): 28.3
Mean Revertant Colony Counts TA-100 SP9+ ([4]; 25 ug/Well): 16.7
Mean Revertant Colony Counts TA-100 S9- ([4]; 25 ug/Well): 25.0
Mean Revertant Colony Counts TA-100 SP9+ ([4]; 64 ug/Well): 18.3
Mean Revertant Colony Counts TA-100 S9- ([4]; 64 ug/Well): 28.7
Mean Revertant Colony Counts TA-100 SP9+ ([4]; 160 ug/Well): 22.7
Mean Revertant Colony Counts TA-100 S9- ([4]; 160 ug/Well): 25.0
Mean Revertant Colony Counts TA-100 SP9+ ([4]; 400 ug/Well): 17.7
Mean Revertant Colony Counts TA-100 S9- ([4]; 400 ug/Well): 21.0
fold increase in the mean number of revertant colonies, TA100 ([4]; any concentration tested, vs negative control): < 2 fold
Mean Revertant Colony Counts TA98 SP9+ ([5]; 1.5 ug/Well): 5.7
Mean Revertant Colony Counts TA98 S9- ([5]; 1.5 ug/Well): 5.0
Mean Revertant Colony Counts TA98 SP9+ ([5]; 4 ug/Well): 6.0
Mean Revertant Colony Counts TA98 S9- ([5]; 4 ug/Well): 9.0
Mean Revertant Colony Counts TA98 SP9+ ([5]; 10 ug/Well): 6.3
Mean Revertant Colony Counts TA98 S9- ([5]; 10 ug/Well): 4.0
Mean Revertant Colony Counts TA98 SP9+ ([5]; 25 ug/Well): 9.3
Mean Revertant Colony Counts TA98 S9- ([5]; 25 ug/Well): 7.7
Mean Revertant Colony Counts TA98 SP9+ ([5]; 64 ug/Well): 8.3
Mean Revertant Colony Counts TA98 S9- ([5]; 64 ug/Well): 11.7
Mean Revertant Colony Counts TA98 SP9+ ([5]; 160 ug/Well): 10.3
Mean Revertant Colony Counts TA98 S9- ([5]; 160 ug/Well): 10.0
Mean Revertant Colony Counts TA98 SP9+ ([5]; 400 ug/Well): 14.0
Mean Revertant Colony Counts TA98 S9- ([5]; 400 ug/Well): 11.7
Mean Revertant Colony Counts TA98 SP9+ ([5]; 1000 ug/Well): 16.3
Mean Revertant Colony Counts TA98 S9- ([5]; 1000 ug/Well): 14.0
fold increase in revertant colonies, TA98 ([5]; 1000 μg/well in the absence of S9 mix): ≥ 2 fold

Source: publication PMC6201879, “N-substituted phenylbenzamides of the niclosamide chemotype attenuate obesity related changes in high fat diet fed mice” (PLoS ONE, 2018)
